In data set [1] the test system is barley powdery mildew fungus (Erysiphe graminis). Description: Test Example 2: control effect against barley powdery mildew by foliage application. Format: in vivo. To be noted: wettable powder diluted to 100 ppm, 10 mL per pot foliage spray on barley; inoculated day after; 7 days after inoculation.
The subject of data set [2] is rice blast fungus (Pyricularia grisea). Format: in vivo. The following applies: flowable diluted to 100 ppm, 10 mL per pot foliage spray on paddy rice; inoculated day after; 7 days after inoculation.
The test system is the same in data set [3]. Format: in vivo. The following applies: flowable 5,000 ppm, 50 mL irrigation of nursery box, paddy rice; inoculated after 3 weeks; 7 days after inoculation.
The test system is the same in data set [4]. Format: in vivo. The following applies: 5 g of granule on nursery box, paddy rice; inoculated after 3 weeks; 7 days after inoculation.
Data set [5] shares this test system. Format: in vivo. To be noted: flowable 1,000 ppm, 1 mL dripped in paddy water, inoculated after 1 week, 7 days after inoculation.
The test system of data set [6] is rice sheath blight fungus (Thanatephorus cucumeris). Description: Test Example 8: control effect against rice sheath blight by box treatment (granule). The following applies: 5 g of granule on nursery box, paddy rice; inoculated after 3 weeks; 7 days after inoculation.
Data set [7] shares this test system. The data set can be described thus: Test Example 6: control effect against rice sheath blight by box treatment (flowable formulation). The following applies: flowable 5,000 ppm, 50 mL irrigation of nursery box, paddy rice; inoculated after 3 weeks; 7 days after inoculation.
The test system is the same in data set [8]. The data set can be described thus: Test Example 10: control effect against rice sheath blight by water surface application (flowable formulation). To be noted: flowable 1,000 ppm, 1 mL dripped in paddy water, inoculated after 1 week, 7 days after inoculation.

The structures appear in SMILES notation. Read-outs that look alike come from different tables or passages of the source.

We go through eight molecules from patent US20210007356A1, “IMIDE DERIVATIVE AND FUNGICIDE CONTAINING SAID DERIVATIVE AS ACTIVE INGREDIENT” (HOKKO CHEMICAL INDUSTRY CO., LTD., priority 2018, published 2021).

Usually melting point stands for the temperature, or range, at which the solid turns liquid. Molecule `O=C(c1nccnc1C(F)(F)F)N(c1ccccc1-c1ccc(F)c(F)c1)c1snc(Cl)c1Cl` [13-55, N-(3,4-Dichloroisothiazol-5-yl)-N-(3′,4′-difluorobiphen-2-yl)-3-(trifluoromethyl)pyrazine-2-carboxamide] returned a melting point of 136.1 to 139.2 °C. In [1], the “evaluation value of control effect (from control value, lesion area percentage)” value amounted to 5. In addition, the “evaluation value of control effect (from control value, number of lesions)” value in data set [2] came to 4. Further, in data set [3], the “evaluation value of control effect (from control value, number of lesions)” value is 5. The “evaluation value of control effect (from control value, number of lesions)” value in data set [4] is 5. Also, the “evaluation value of control effect (from control value, number of lesions)” value in [5] worked out at 5. Also, the “evaluation value of control effect (from control value, lesion height)” value in data set [6] was found to be 5. Further, the “evaluation value of control effect (from control value, lesion height)” value in data set [7] worked out at 5. Besides, the “evaluation value of control effect (from control value, lesion height)” value in [8] is 5.
As for `Cc1nn(C)c(Cl)c1C(=O)N(C(=O)c1snc(Cl)c1Cl)c1cccc2c1C(C)OC2(C)C` (stereo not shown) [25-115, 3,4-Dichloro-N-(5-chloro-1,3-dimethyl-pyrazole-4-carbonyl)-N-(1,3-dihydro-1,1,3-trimethylisobenzofuran-4-yl)-isothiazole-5-carboxamide], the melting point was 165.5 to 170.3 °C. For the same molecule, in [1], the “evaluation value of control effect (from control value, lesion area percentage)” value came out at 4. In addition, the “evaluation value of control effect (from control value, number of lesions)” value in data set [2] is 4. Besides, in data set [6], the “evaluation value of control effect (from control value, lesion height)” value is 5. The “evaluation value of control effect (from control value, lesion height)” value in data set [7] was determined as 5. For the same molecule, in data set [8], the “evaluation value of control effect (from control value, lesion height)” value was 5.
`CC1CC(C)(C)c2cccc(N(C(=O)c3cn(C)nc3C(F)F)C(=O)c3snc(Cl)c3Cl)c21` (stereo not shown) [25-4, 3,4-Dichloro-N-{3-(difluoromethyl)-1-methyl-pyrazole-4-carbonyl)-N-(2,3-dihydro-1,1,3-trimethyl-1H-inden-4-yl)-isothiazole-5-carboxamide]: the melting point fell in the range of 154.3 to 155.6 °C. In [1], the “evaluation value of control effect (from control value, lesion area percentage)” value was 4. The “evaluation value of control effect (from control value, lesion height)” value in data set [6] was found to be 5. Also, in data set [7], the “evaluation value of control effect (from control value, lesion height)” value is listed as 5. Further, the “evaluation value of control effect (from control value, lesion height)” value in [8] came to 5.
On to `CC1OC(C)(C)c2cccc(N(C(=O)c3cn(C)nc3C(F)F)C(=O)c3snnc3C(F)F)c21` (stereo not shown) [25-68], for which the “evaluation value of control effect (from control value, lesion area percentage)” value in [1] is given as 4. The “evaluation value of control effect (from control value, number of lesions)” value in data set [2] came to 4; in data set [3] it was 5; in data set [4], 5; in data set [5], 5. Also, the “evaluation value of control effect (from control value, lesion height)” value in data set [6], in data set [7] and in [8] was 5 in each case.
`CC(C)CC(C)c1ccccc1N(C(=O)c1cccnc1C(F)F)C(=O)c1snc(Cl)c1Cl` (stereo not shown) [13-2, 3,4-Dichloro-N-{2-(difluoromethyl)pyridine-3-carbonyl}-N-{2-(1,3-dimethylbutyl)phenyl}isothiazole-5-carboxamide]: the melting point lay within 111 to 115.6 °C. Moreover, in [1], the “evaluation value of control effect (from control value, lesion area percentage)” value came out at 5. Besides, the “evaluation value of control effect (from control value, number of lesions)” value in data set [2] was 4. Moreover, in data set [3], the “evaluation value of control effect (from control value, number of lesions)” value is on record as 5. In addition, the “evaluation value of control effect (from control value, number of lesions)” value in data set [4] came out at 5. For the same molecule, in data set [5], the “evaluation value of control effect (from control value, number of lesions)” value stood at 5. Also, the “evaluation value of control effect (from control value, lesion height)” value in data set [6] was 5. The “evaluation value of control effect (from control value, lesion height)” value in data set [7] stood at 5. Moreover, the “evaluation value of control effect (from control value, lesion height)” value in data set [8] is given as 5.
`CC(C)CC(C)c1sccc1N(C(=O)c1cn(C)nc1C(F)F)C(=O)c1snc(Cl)c1Cl` (stereo not shown) [5-5]: in data set [1], the “evaluation value of control effect (from control value, lesion area percentage)” value is reported as 5. Also, the “evaluation value of control effect (from control value, number of lesions)” value stood at 4 in data set [2], 5 in data set [3], 5 in [4] and 5 in data set [5]. The “evaluation value of control effect (from control value, lesion height)” value in [6], in [7] and in data set [8] was 5 in each case.
With `Cn1cc(C(=O)N(C(=O)c2scnc2C(F)F)c2ccccc2-c2cc(F)c(F)c(F)c2)c(C(F)F)n1` [1-370], the “evaluation value of control effect (from control value, lesion area percentage)” value in data set [1] is 4. In addition, the “evaluation value of control effect (from control value, number of lesions)” value in data set [2] was determined as 4; in data set [3] it was 5; in data set [4], 5; in data set [5] it was 5. The “evaluation value of control effect (from control value, lesion height)” value in data set [6], in data set [7] and in [8] was 5 throughout.
In the case of `Cn1cc(C(=O)N(C(=O)c2onc(Cl)c2Cl)c2ccccc2-c2cc(F)c(F)c(F)c2)c(C(F)F)n1` [1-374], the “evaluation value of control effect (from control value, lesion area percentage)” value in data set [1] is reported as 4. Further, the “evaluation value of control effect (from control value, number of lesions)” value is on record as 4 in [2], 5 in data set [3], 5 in [4] and 5 in [5]. Besides, the “evaluation value of control effect (from control value, lesion height)” value in [6], in data set [7] and in [8] was 5 throughout.
